This note sets out measurements from paper PMC8308780, “Antiviral Activity of Isoquinolone Derivatives against Influenza Viruses and Their Cytotoxicity” (Pharmaceuticals, 2021).

For data set [1], the system named is A/Hong Kong/8/68 (H3N2; HK). The data set can be described thus: microbe, parasite or virus in culture. Conditions: Influenza A virus, read-out: EC50 against Influenza Virus HK. It counts as cell-based.
Data set [2] in a line: in vitro. The note with it: dog.
Data set [3] concerns influenza A and B viruses (PR8, HK, Lee). The data set can be described thus: Cytopathic effect assay, values given across the viral strains tested. Type of data set: cell-based. Conditions: Influenza A virus. Background: Protection from cytopathic effect is a common read-out in antiviral testing.
The target of data set [4] is influenza A viral polymerase (Influenza A virus, UniProt P03428+P03431+P03433). Type of data set: cell-based.
Data set [5] deals with A/Puerto Rico/8/34 (H1N1; PR8). Briefly: microbe, parasite or virus in culture. Type of data set: cell-based. The note with it: Influenza A virus, read-out: EC50 against Influenza Virus PR8.
The test system of a further data set is B/Lee/40 (Lee). Briefly: microbe, parasite or virus in culture. Type of data set: cell-based, influenza B virus. Conditions: unidentified influenza virus, MDCK, read-out: EC50 against Influenza Virus Lee.
Another data set addresses NA (Influenza A virus, UniProt P03468). The data set can be described thus: NA activity assay (NA-XTD kit) with purified PR8 virus. It counts as biochemical, influenza A virus PR8. Conditions: maximum concentration of 30 µM.
Data set [6] has as its system PR8 virus. It counts as cell-based, influenza A virus.
Data set [7] has as its system MDCK cells. The data set can be described thus: Fluorescein diacetate-based cell viability assay, mock-infected cells (cytotoxicity).
Data set [8] relates to PR8 virus. The data set can be described thus: microbe, parasite or virus in culture. It counts as cell-based, influenza A virus. The note with it: for antiviral activity on exposure during viral adsorption: 0–1 h at 4 °C, compound 1 10 µM, EGCG 1 µM.
In data set [9] the test system is PR8 virus. Conditions: MDCK cells, subtoxic concentrations, 1 day.
Data set [10] is described as follows: in vitro. The note with it: dog. This is another data set of the same source.
The test system of data set [11] is MDCK cells. Conditions: 2-day treatment, concentrations above 0.41 µM.
The test system of data set [12] is PR8 virus. The note with it: 3 or 30 µM, 5 h post-infection.
Experimental: For fluorescence microscopy, PR8 virus-infected MDCK cells (MOI, 3) seeded onto 4-well slides (8.5 × 10^4 cells per well) were treated with DMSO (delivery vehicle), compound 1, or RBV at 33 °C for 5 h. After fixing and permeabilization, viral NP was visualized using an anti-NP antibody (Santa Cruz Biotechnology, Santa Cruz, CA, USA), followed by an Alexa 488-conjugated goat anti-mouse IgG (Invitrogen) [10]. Cells were counterstained with a Vectashield mounting medium containing DAPI (Vector Laboratories, Burlingame, CA, USA). Images were captured under a Zeiss LSM 700 confocal microscope (Carl Zeiss, Thornwood, NY, USA).
Setting [13] is: A/Hong Kong/8/68 (H3N2), MDCK cells.
The mark [14] stands for this setting: PR8, HK and Lee strains, MDCK cells, read-out: EC50 values, range across influenza A and B viruses.
Where [15] appears, read: A/Puerto Rico/8/34 (H1N1), MDCK cells.

pEC50: −log10 of the molar value. Where a name gives a salt, the structure may show the parent alone. Read-outs that look alike come from different tables or passages of the source. Where only a bound is given, the exact number is not on record here.

Experimental for NA: An NA activity assay was performed by using the NA-XTD Influenza Neuraminidase assay kit (Applied Biosystems, Foster City, CA, USA) [25, 26]. The influenza A virus PR8 (2.8 × 10^3 PFU) was mixed with the same volume of compounds at 37 °C for 20 min. After an addition of NA-XTD substrate, the mixture was incubated at room temperature for 30 min. The luminescent signal was maximized by the addition of an NA-XTD accelerator according to the manufacturer’s instructions and read using a microplate luminometer (Centro LB960 system; Berthold Technologies, Bad Wildbad, Germany). Half maximum inhibitory concentrations (IC50s) were determined using GraphPad Prism 8.4.2.

As for `COc1cc2cc(-c3ccccc3)[nH]c(=O)c2cc1OC` [Compound 21, 6,7-dimethoxy-3-phenylisoquinolone], the pEC50 in [1] (setting [13]) was 4.96; in data set [3] (setting [14]), 4.73 to 5.00; in data set [5] (setting [15]) it was 4.73; with B/Lee/40 (Lee), 5.00. Moreover, the CC50 at 3 days in the data set “in vitro [2]” is above 300 µM. In [4], the viral polymerase activity result is listed as “efficiently suppressed viral polymerase activity”. The “inhibitory effect on NA activity” value against NA was “no inhibitory effect”. In addition, the “progeny virus production (plaque assay)” value in the data set on PR8 virus [6] is given as “inhibited progeny virus production into MDCK culture supernatants in a dose-dependent manner”.
Regarding `NC12CC3CC(CC(C3)C1)C2` [AMT, amantadine hydrochloride, reference compound], the figures for the negative-log EC50 (pEC50) (in data set [1] (setting [13]); in [5] (setting [15]); in the data set on B/Lee/40 (Lee)) were 5.80, below 3.52 and below 3.52, respectively. Moreover, the CC50 at 3 days in the data set “in vitro [2]” (mock-infected MDCK cells) was above 300 µM.
As for `COc1ccc2cc(-c3cc4c(cc3CCO)OCO4)n(C)c(=O)c2c1OC` [Compound 19], the pEC50 was 4.34 in data set [1] (setting [13]), 4.22 to 4.65 in data set [3] (setting [14]), 4.22 in [5] (setting [15]) and 4.65 with B/Lee/40 (Lee). In the data set “in vitro [2]”, this compound showed a CC50 at 3 days above 300 µM.
As to `Cc1ccc2c(=O)[nH]c(-c3c(C)cccc3C)c(Br)c2c1` [Compound 14], the pEC50 (in [1] (setting [13]); in [5] (setting [15]); with B/Lee/40 (Lee)) was below 3.52 in each case. In addition, the CC50 at 3 days in the data set “in vitro [2]” is above 300 µM.
For the compound `COc1cc2cc(-c3cccc(C)c3)[nH]c(=O)c2cc1OC` [Compound 23], the pEC50 (in data set [1] (setting [13]); in data set [5] (setting [15]); in the data set on B/Lee/40 (Lee)) was below 3.52 throughout. In “in vitro [2]”, this compound gave a CC50 at 3 days above 300 µM.
Take `Cc1ccc(-c2cc3c(N(C)C)cccc3c(=O)[nH]2)cc1` [Compound 7]: the pEC50 (in [1] (setting [13]); in data set [5] (setting [15]); in the data set on B/Lee/40 (Lee)) was below 3.52 throughout. Moreover, in the data set “in vitro [2]”, the CC50 at 3 days is above 300 µM.
Consider `CCc1cc2c(cc1-c1cc3ccc(OC)c(O)c3c(=O)n1C)OCO2` [Compound 17], for which the pEC50 was 5.24 in [1] (setting [13]); 4.43 to 5.24 in data set [3] (influenza A strains only (PR8, HK), read-out: EC50 values, range against influenza A viral strains); 4.43 in data set [5] (setting [15]); below 3.96 with B/Lee/40 (Lee). Further, in the data set “in vitro [2]”, the CC50 at 3 days was determined as 109 µM.
With `COc1ccc2cc(-c3cc4c(cc3CCO)OCO4)[nH]c(=O)c2c1OC` [Compound 20], the pEC50 was 4.92 in [1] (setting [13]), 4.53 in data set [5] (setting [15]) and 4.81 in the data set with B/Lee/40 (Lee). In the data set “in vitro [2]”, the CC50 at 3 days is above 300 µM. Further, in the data set on MDCK cells [7] (300 µM), the cell death entry was “approximately 30%”.
Turning to `Cc1cccc(-c2cc3c(N(C)C)cccc3c(=O)[nH]2)c1` [Compound 6], the pEC50 in data set [1] (setting [13]) was below 3.52; in data set [5] (setting [15]) it was below 3.52; in the data set with B/Lee/40 (Lee), 4.23. The same compound registered a CC50 at 3 days in the data set “in vitro [2]” above 300 µM.
Regarding `COc1ccc(-c2cc3cc(C)ccc3c(=O)[nH]2)cc1OC` [Compound 11], the pEC50 in data set [1] (setting [13]) is 4.02; in data set [5] (setting [15]) it was 4.49; in the data set on B/Lee/40 (Lee), 4.13. The same compound had a CC50 at 3 days in the data set “in vitro [2]” above 300 µM.
For `COc1cc2cc(-c3ccccc3O)[nH]c(=O)c2cc1OC` [Compound 22], in that order: below 3.52, below 3.52, below 3.52 and above 300 µM.
As to “(-)-epigallocatechin-3-gallate [EGCG, reference compound]”, in the data set with PR8 virus [8], the “antiviral activity on exposure during viral adsorption” value is “blocked PR8 infection completely”.
As for `CN(C)c1cccc2c(=O)[nH]c(-c3ccc(Br)cc3)cc12` [Compound 9], the pEC50 (in [1] (setting [13]); in data set [5] (setting [15]); in the data set on B/Lee/40 (Lee)) was below 3.52 each time. For the same compound, in “in vitro [2]”, the CC50 at 3 days was above 300 µM.
Take `CCc1cc2c(cc1-c1cc3ccc(OC)c(OC)c3c(=O)n1C)OCO2` [Compound 1, 3-(6-ethylbenzo[d][1,3]dioxol-5-yl)-7,8-dimethoxy-2-methylisoquinolin-1(2H)]: the pEC50 in data set [1] (setting [13]) is 6.52; in [3] (setting [14]) it was 6.22 to 6.70; in data set [5] (setting [15]), 6.70; in the data set on B/Lee/40 (Lee), 6.22. Further, in the data set “in vitro [2]”, the CC50 at 3 days was found to be 39 µM. The “antiviral activity on exposure during viral adsorption” value in the data set on PR8 virus [8] is “failed to induce antiviral activity”. Further, in the data set on PR8 virus [8] (Influenza A virus, PR8, 7 h, read-out: inhibition of plaque formation), the inhibition at 10 µM was above 80%. Further, the “viral protein expression (Western blot)” value in the data set on PR8 virus [9] was “reducing the expression of viral proteins, including NP and HA”. For the same compound, the viral polymerase activity result in data set [4] is given as “suppressed viral RNA replication/transcription”. The viability at 1 day, 11.11 µM in the data set “in vitro [10]” came to 80%. In the data set on MDCK cells [11], the “cell death (MTT)” value is recorded as above 40%. For the same compound, the “NP-positive cells (confocal microscopy)” value in the data set with PR8 virus [12] is recorded as “few or no NP-positive cells”. This compound registered a cell death in the data set with MDCK cells [7] (incubation for 2 days, concentrations > 0.41 µM, fluorescein diacetate) above 40%. For the same compound, the “progeny virus production (plaque assay)” value in the data set with PR8 virus [6] is “reducing the number of viral progeny released into the culture supernatant”.
Take `COc1ccc(-c2[nH]c(=O)c3ccc(C)cc3c2Br)cc1OC` [Compound 13]: the pEC50 in data set [1] (setting [13]) is 3.76; in data set [5] (setting [15]), 3.75; in the data set with B/Lee/40 (Lee), below 3.52. In the data set “in vitro [2]”, this compound returned a CC50 at 3 days above 300 µM.
Take `COc1ccccc1-c1cc2ccccc2c(=O)[nH]1` [Compound 5]: the pEC50 in data set [1] (setting [13]) is below 3.92; in [5] (setting [15]) it was below 3.92; in the data set with B/Lee/40 (Lee), 5.85. The same compound gave a CC50 at 3 days in the data set “in vitro [2]” of 120 µM.
Take `C=Cc1cc2c(cc1-c1cc3ccc(OC)c(OC)c3c(=O)n1C)OCO2` [Compound 18]: the pEC50 in data set [1] (setting [13]) was 5.85; in [5] (setting [15]), 5.55; with B/Lee/40 (Lee) it was 5.96. In “in vitro [2]”, this compound yielded a CC50 at 3 days of 40.3 µM.
In the case of `O=c1[nH]c(-c2ccccc2CO)cc2ccccc12` [Compound 4], the pEC50 in [1] (setting [13]) is 4.09; in data set [5] (setting [15]), 4.28; in the data set on B/Lee/40 (Lee) it was 4.76. The CC50 at 3 days in the data set “in vitro [2]” is above 300 µM.
For `Cn1c(-c2ccccc2C=O)cc2ccccc2c1=O` [Compound 15], in that order: below 3.52, below 3.52, below 3.52 and above 300 µM.
In the case of `NC(=O)c1ncn([C@@H]2O[C@H](CO)[C@@H](O)[C@H]2O)n1` [RBV, ribavirin, reference compound], the pEC50 in [1] (H3N2, MDCK) was 4.36; in data set [5] (MDCK) it was 4.60; in the data set on B/Lee/40 (Lee), 4.32. Further, the CC50 at 3 days in the data set “in vitro [2]” (mock-infected MDCK cells) was above 300 µM.
On to `CN(C)c1cccc2c(=O)[nH]c(-c3ccc(Cl)cc3)cc12` [Compound 8], for which the pEC50 (in data set [1] (setting [13]); in data set [5] (setting [15]); with B/Lee/40 (Lee)) was below 3.52 each time. The compound also gave a CC50 at 3 days in “in vitro [2]” above 300 µM.
Take `Cc1ccc2c(=O)[nH]c(-c3c(C)cccc3C)cc2c1` [Compound 12]: the negative logarithm of the EC50 (pEC50) (in data set [1] (setting [13]); in [5] (setting [15]); in the data set with B/Lee/40 (Lee)) was below 3.52 in each case. The same compound gave a CC50 at 3 days in the data set “in vitro [2]” above 300 µM.
On to `O=c1[nH]c(-c2ccccc2O)cc2ccccc12` [Compound 3], for which the pEC50 is 3.99 in [1] (setting [13]), 4.24 in [5] (setting [15]) and 4.19 in the data set on B/Lee/40 (Lee). In “in vitro [2]”, this compound returned a CC50 at 3 days above 300 µM.
For `Cn1c(-c2ccccc2O)c(C=O)c2ccccc2c1=O` [Compound 16], in that order: below 3.83, below 3.83, below 3.83 and 148 µM.
Take `CCC(CC)O[C@@H]1C=C(C(=O)O)C[C@H](N)[C@H]1NC(C)=O` [OSV-C, oseltamivir carboxylate, reference compound]: the pEC50 in [1] (setting [13]) was 7.52; in [5] (setting [15]), 7.30; in the data set with B/Lee/40 (Lee), 6.43. In the data set “in vitro [2]”, this compound displayed a CC50 at 3 days above 300 µM.
Consider `O=c1[nH]c(-c2ccccc2)cc2ccccc12` [Compound 2, 3-phenylisoquinolone], for which the pEC50 in data set [1] (setting [13]) is 4.13; in [5] (setting [15]) it was 4.35; in the data set on B/Lee/40 (Lee), 4.06. In addition, the CC50 at 3 days in the data set “in vitro [2]” is above 300 µM.

By pEC50 is commonly meant the negative decadic logarithm of the EC50, by convention in mol/L. In general, inhibition refers to the change of the read-out against control, counted positive when it falls. What is called viability is the share of living cells, or the viability signal relative to a control. High values mean less harm to the cells, low ones more harm to the cells.
